Reference: patent US11332459B2 (TEIJIN PHARMA LIMITED, priority 2017, dated 2022)
Structures can show the parent of a compound that is named as a salt.

The molecules below were run against T1, human TRPC6 (Homo sapiens, UniProt Q9Y210) (assay: TRPC6 calcium flux assay (FLIPR, OAG-stimulated calcium influx)). Settings: HEK293 cells stably transfected with human TRPC6, read-out: hTRPC6 Potency.
T1 construct: expressed in transfected cells
T1 sequence (Q9Y210 1-931): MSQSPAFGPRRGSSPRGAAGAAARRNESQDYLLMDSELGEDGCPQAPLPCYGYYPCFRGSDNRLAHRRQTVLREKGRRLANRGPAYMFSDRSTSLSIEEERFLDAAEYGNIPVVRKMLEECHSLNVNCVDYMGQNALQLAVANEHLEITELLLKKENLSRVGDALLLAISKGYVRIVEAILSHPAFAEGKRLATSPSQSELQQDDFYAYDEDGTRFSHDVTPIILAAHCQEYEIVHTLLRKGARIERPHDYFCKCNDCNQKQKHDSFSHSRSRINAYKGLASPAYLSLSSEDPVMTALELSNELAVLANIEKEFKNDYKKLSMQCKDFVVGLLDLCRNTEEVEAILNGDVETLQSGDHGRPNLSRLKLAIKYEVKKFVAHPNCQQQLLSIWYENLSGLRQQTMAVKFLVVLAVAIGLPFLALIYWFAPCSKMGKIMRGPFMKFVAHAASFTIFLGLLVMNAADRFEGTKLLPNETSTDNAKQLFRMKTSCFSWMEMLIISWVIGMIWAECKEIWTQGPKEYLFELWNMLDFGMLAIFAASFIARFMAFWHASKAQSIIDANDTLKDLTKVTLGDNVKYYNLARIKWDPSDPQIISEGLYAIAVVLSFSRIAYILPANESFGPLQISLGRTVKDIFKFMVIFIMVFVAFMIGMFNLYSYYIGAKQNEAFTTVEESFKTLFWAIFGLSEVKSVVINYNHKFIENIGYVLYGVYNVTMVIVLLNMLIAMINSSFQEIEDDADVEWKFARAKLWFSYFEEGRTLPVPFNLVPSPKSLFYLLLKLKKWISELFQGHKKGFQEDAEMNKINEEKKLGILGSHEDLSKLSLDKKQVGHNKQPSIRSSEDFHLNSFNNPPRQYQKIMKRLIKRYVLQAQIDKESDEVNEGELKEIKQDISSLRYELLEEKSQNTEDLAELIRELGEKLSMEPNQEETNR
Format: cell-based
In short: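 IC50 derived by plotting background-corrected peak fluorescence (180 s window, normalized to OAG-triggered signal vs buffer) against dose. Stable human TRPC6 HEK293 line was dye-loaded, exposed to compound 25 min, then challenged with 50 uM final OAG in 2 mM Ca2+ HEPES buffer pH 7.2, 0.5% DMSO.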
An IC50 of 117 nM was found for `N[C@@H]1CN(c2nc3cc(F)c(F)cc3n2CC(=O)N2CCC(OC(F)F)C2)CC[C@H]1F` (stereo partly drawn) [Example 626, 2-(2-((3R,4R)-3-amino-4-fluoropiperidin-1-yl)-5,6-difluoro-1H-benzo[d]imidazol-1-yl)-1-(3-(difluoromethoxy)pyrrolidin-1-yl)ethanone] in this work.
An IC50 of 2.23 nM was found for `CN[C@@H]1CN(c2nc3cc(F)cc(F)c3n2[C@@H](C)c2ccc(C#N)cn2)CC[C@H]1F` (single isomer, unassigned) [Example 441] in this work.
An IC50 of 7.9 nM was found for `CCN(C)C(=O)Cn1c(N2CC[C@@H](F)[C@H](N)C2)nc2cc(F)c(F)cc21` [Example 605, 2-(2-((3R,4R)-3-amino-4-fluoropiperidin-1-yl)-5,6-difluoro-1H-benzo[d]imidazol-1-yl)-N-ethyl-N-methylacetamide] in this work.
An IC50 of 290 nM was found for `CC1COCC(C)N1C(=O)Cn1c(N2CC[C@@H](F)[C@H](N)C2)nc2ccc(F)cc21` (stereo partly drawn) [Example 683, 2-(2-((3R,4R)-3-amino-4-fluoropiperidin-1-yl)-6-fluoro-1H-benzo[d]imidazol-1-yl)-1-(3,5-dimethylmorpholino)ethan-1-one] in this work.
An IC50 of 0.432 nM was found for `N[C@@H]1CN(c2nc3c(F)cc(F)cc3n2Cc2ccc(F)cn2)CC[C@H]1F` [Example 33, (3R,4R)-1-(4,6-difluoro-1-((5-fluoropyridin-2-yl)methyl)-1H-benzo[d]imidazol-2-yl)-4-fluoropiperidin-3-amine] in this work.
An IC50 of 61.7 nM was found for `N#Cc1ccc(Cn2c(N3CC[C@@H](F)[C@H](N)C3)nc3cc(F)cc(F)c32)cc1` [Example 156] in this work.
An IC50 of 1580 nM was found for `N#Cc1cc(Cl)ccc1Cn1c(N2CCC[C@@H](N)C2)nc2ccccc21` [Example 397, (R)-2-((2-(3-aminopiperidin-1-yl)-1H-benzo[d]imidazol-1-yl)methyl)-5-chlorobenzonitrile] in this work.
An IC50 of 2740 nM was found for `CN(CC(F)(F)F)C(=O)Cn1c(N2CCC(F)(F)[C@H](N)C2)nc2cc(F)ccc21` [Example 482, (R)-2-(2-(3-amino-4,4-difluoropiperidin-1-yl)-5-fluoro-1H-benzo[d]imidazol-1-yl)-N-methyl-N-(2,2,2-trifluoroethyl)acetamide] in this work.
An IC50 of 0.288 nM was found for `N[C@@H]1CN(c2nc3ccc(C(F)(F)F)cc3n2Cc2ncc(F)cn2)CC[C@@H]1F` [Example 305, (3R,4S)-4-fluoro-1-(1-((5-fluoropyrimidin-2-yl)methyl)-6-(trifluoromethyl)-1H-benzo[d]imidazol-2-yl)piperidin-3-amine] in this work.
An IC50 of 3010 nM was found for `CCN(C(=O)Cn1c(N2CC[C@@H](F)[C@H](N)C2)nc2cc(F)c(F)cc21)C1CCS(=O)(=O)C1` (mixture of isomers) [Example 527, 2-(2-((3R,4R)-3-amino-4-fluoropiperidin-1-yl)-5,6-difluoro-1H-benzo[d]imidazol-1-yl)-N-(1,1-dioxidotetrahydrothiophen-3-yl)-N-ethylacetamide] in this work.
An IC50 of 28.1 nM was found for `N#Cc1cnc(Cn2c(N3CCC(F)(F)[C@H](N)C3)nc3ccccc32)cn1` [Example 199] in this work.
`COc1cc(F)cc2c1nc(N1CC[C@@H](F)[C@H](N)C1)n2CC(=O)N1CCOCC1` [Example 545, 2-(2-((3R,4R)-3-amino-4-fluoropiperidin-1-yl)-6-fluoro-4-methoxy-1H-benzo[d]imidazol-1-yl)-1-morpholinoethan-1-one] was tested, and the IC50 was > 3750 nM.
An IC50 of 61.1 nM was found for `N[C@@H]1CN(c2nc3ccc(F)cc3n2Cc2ncc(Cl)cn2)CC[C@H]1O` (single isomer, unassigned) [Example 496] in this work.
An IC50 of 476 nM was found for `CN[C@@H]1CN(c2nc3c(F)cc(F)cc3n2[C@H](C)c2ccc(C#N)cn2)CC[C@H]1F` (single isomer, unassigned) [Example 438] in this work.
An IC50 of 29.2 nM was found for `Cc1cc(Cn2c(N3CC[C@@H](F)[C@H](N)C3)nc3cc(F)c(F)cc32)no1` [Example 564, (3R,4R)-1-(5,6-difluoro-1-((5-methylisoxazol-3-yl)methyl)-1H-benzo[d]imidazol-2-yl)-4-fluoropiperidin-3-amine] in this work.
An IC50 of 60.4 nM was found for `N[C@@H]1CN(c2nc3cc(F)c(F)cc3n2CC(=O)N2CCOC3CCOCC32)CC[C@H]1F` (mixture of isomers) [Example 620, 2-(2-((3R,4R)-3-amino-4-fluoropiperidin-1-yl)-5,6-difluoro-1H-benzo[d]imidazol-1-yl)-1-(hexahydropyrano[4,3-b][1,4]oxazin-4(7H)-yl)ethanone] in this work.
An IC50 of 48.1 nM was found for `Cc1csc(Cn2c(N3CC[C@@H](F)[C@H](N)C3)nc3cc(F)c(F)cc32)n1` [Example 568, (3R,4R)-1-(5,6-difluoro-1-((4-methylthiazol-2-yl)methyl)-1H-benzo[d]imidazol-2-yl)-4-fluoropiperidin-3-amine] in this work.
An IC50 of 1.17 nM was found for `N#Cc1ccc(Cn2c(N3CC[C@@H](F)[C@H](N)C3)nc3cc(Cl)ccc32)nc1` [Example 7, 6-((2-((3R,4R)-3-amino-4-fluoropiperidin-1-yl)-5-chloro-1H-benzo[d]imidazol-1-yl)methyl)nicotinonitrile] in this work.
An IC50 of 12.7 nM was found for `N#Cc1ccc(Cn2c(N3CC[C@@H](F)[C@H](N)C3)nc3ncccc32)cc1` [Example 417, 4-((2-((3R,4R)-3-amino-4-fluoropiperidin-1-yl)-1H-imidazo[4,5-b]pyridin-1-yl)methyl)benzonitrile] in this work.
An IC50 of 2930 nM was found for `C[C@H](c1cccc(Cl)c1)n1c(N2CC[C@@H](F)[C@H](N)C2)nc2cc(F)c(F)cc21` [Example 326, (3R,4R)-1-(1-((1R)-1-(3-chlorophenyl)ethyl)-5,6-difluoro-1H-benzimidazol-2-yl)-4-fluoro-3-piperidinamine] in this work.
`CNC(=O)C1CCCN(C(=O)Cn2c(N3CC[C@@H](F)[C@H](N)C3)nc3cc(F)c(F)cc32)C1` (stereo partly drawn) [Example 654, 1-(2-(2-((3R,4R)-3-amino-4-fluoropiperidin-1-yl)-5,6-difluoro-1H-benzo[d]imidazol-1-yl)acetyl)-N-methylpiperidine-3-carboxamide] was tested, and the IC50 was > 3750 nM.
An IC50 of 39.8 nM was found for `Cc1cnc(Cn2c(N3CC[C@@H](F)[C@H](N)C3)nc3cc(F)c(F)cc32)o1` [Example 567, (3R,4R)-1-(5,6-difluoro-1-((5-methyloxazol-2-yl)methyl)-1H-benzo[d]imidazol-2-yl)-4-fluoropiperidin-3-amine] in this work.
In the case of `N#Cc1ccc2c(c1)nc(N1CC[C@H](F)[C@H](N)C1)n2CC(=O)N1CCC1` [Example 288, 2-((3R,4S)-3-amino-4-fluoro-1-piperidinyl)-1-(2-(1-azetidinyl)-2-oxoethyl)-1H-benzimidazole-5-carbonitrile], the IC50 is reported as > 3750 nM.
An IC50 of 6.21 nM was found for `CN(C(=O)Cn1c(N2CC[C@@H](F)[C@H](N)C2)nc2cc(F)c(F)cc21)c1nccs1` [Example 501, 2-(2-((3R,4R)-3-amino-4-fluoropiperidin-1-yl)-5,6-difluoro-1H-benzo[d]imidazol-1-yl)-N-methyl-N-(thiazol-2-yl)acetamide] in this work.
An IC50 of 133 nM was found for `N#Cc1ccc(Cn2c(N3CCC(F)(F)[C@H](N)C3)nc3cc(C#N)ccc32)cc1` [Example 161, 2-((3R)-3-amino-4,4-difluoro-1-piperidinyl)-1-(4-cyanobenzyl)-1H-benzimidazole-5-carbonitrile] in this work.
An IC50 of 8.44 nM was found for `CO[C@@H]1CCN(c2nc3ccc(F)cc3n2Cc2ncc(Cl)cn2)C[C@H]1N` (single isomer, unassigned) [Example 456] in this work.
An IC50 of 3170 nM was found for `COCC1CN(C(=O)Cn2c(N3CC[C@@H](F)[C@H](N)C3)nc3cc(F)c(F)cc32)CCO1` (mixture of isomers) [Example 647, 2-(2-((3R,4R)-3-amino-4-fluoropiperidin-1-yl)-5,6-difluoro-1H-benzo[d]imidazol-1-yl)-1-(2-(methoxymethyl)morpholino) ethanone] in this work.
An IC50 of 51.5 nM was found for `C[C@H](c1ccc(C#N)cn1)n1c(N2CC[C@@H](F)[C@H](N)C2)nc2ccc(C#N)cc21` [Example 223, 2-((3R,4R)-3-amino-4-fluoropiperidin-1-yl)-1-((R)-1-(5-cyanopyridin-2-yl)ethyl)-1H-benzo[d]imidazole-6-carbonitrile hydrochloride] in this work.
An IC50 of 6.98 nM was found for `NC(=O)c1cnc(Cn2c(N3CC[C@@H](F)[C@H](N)C3)nc3cc(F)c(F)cc32)cn1` [Example 133, 5-((2-((3R,4R)-3-amino-4-fluoro-1-piperidinyl)-5,6-difluoro-1H-benzimidazol-1-yl)methyl)-2-pyrazinecarboxamide] in this work.
An IC50 of 0.631 nM was found for `COc1ccc2nc(N3CC[C@@H](F)[C@H](N)C3)n(Cc3ccc(C#N)cn3)c2c1` [Example 146, 6-((2-((3R,4R)-3-amino-4-fluoropiperidin-1-yl)-6-methoxy-1H-benzo[d]imidazol-1-yl)methyl)nicotinonitrile hydrochloride] in this work.
